Assay [1] deals with Myzus persicae. Nature of the assay: Myzus persicae-Test (sprayed cabbage leaves). The class given is in vivo. Conditions: 144 h, after 6 d, spray on cabbage leaves. As for the experimental part:
(§1) Solvent: 7 parts by weight of dimethylformamide Emulsifier: 2 parts by weight of alkylaryl polyglycolether
(§2) To produce a suitable preparation of active compound, 1 part by weight of active compound is mixed with the stated amount of solvent and emulsifier, and the concentrate is diluted with emulsifier-containing water to the desired concentration.
Cabbage leaves (Brassica oleracea) which are heavily infested by the green peach aphid (Myzus persicae) are treated by being sprayed with the preparation of the active compound at the desired concentration.
After the specified period of time, the mortality in % is determined. 100% means that all the aphids have been killed; 0% means that none of the aphids have been killed.

Assay [2] concerns Phaedon cochleariae. Nature of the assay: Phaedon cochleariae-Test (larvae, sprayed cabbage leaves). Conditions: 144 h, after 6 d, spray on cabbage leaves. The class given is in vivo. On the procedure: as §1, §2
Cabbage leaves (Brassica oleracea) are treated by being sprayed with the preparation of the active compound in the desired concentration and are infested with larvae of the mustard beetle (Phaedon cochleariae) as long as the leaves are still moist.
After the specified period of time, the mortality in % is determined. 100% means that all the beetle larvae have been killed; 0% means that none of the beetle larvae have been killed.

As usually defined, the mortality is the percentage killed.

The structures appear in SMILES notation.

`CC(C)C1CCC(Cc2ccc(Cl)cc2)C1(O)Cn1cncn1` (centres unmarked) [Ipconazole, ipconazole]: the mortality at 200 ppm is 10% in assay [1] and 5% in assay [2] (200 ppm). Take `COCC(=O)N(c1c(C)cccc1C)C(C)C(=O)OC` (centres unmarked) [Metalaxyl, metalaxyl]: in assay [1], the mortality at 200 ppm turned out to be 0%.

`CN/C(=N\[N+](=O)[O-])NCc1cnc(Cl)s1` [Clothianidin, clothianidin] displayed a mortality at 0.8 ppm in assay [1] (0.8 ppm) of 65%. Moreover, the mortality at 4 ppm in assay [2] (4 ppm) was 55%.

The record behind these values is patent US20100316746A1, “Pesticidal Compound Mixtures” (Bayer CropScience AG, priority 2007, published 2010).
